SMILES strings stand for the structures. pIC50: −log10 of the molar value.

The record followed here is US20260124309A1, “STAT6 DEGRADERS AND USES THEREOF” (Kymera Therapeutics, Inc., priority 2023, published 2026).

Test [1] deals with T1, biotinylated truncated STAT6 (123-632)-avi (Homo sapiens, UniProt P42226).
T1 construct: biotinylated truncated STAT6 (123-632)-avi purified from E. coli; made in house; host or cells: E. coli
T1 sequence (P42226 123-632 limits assumed): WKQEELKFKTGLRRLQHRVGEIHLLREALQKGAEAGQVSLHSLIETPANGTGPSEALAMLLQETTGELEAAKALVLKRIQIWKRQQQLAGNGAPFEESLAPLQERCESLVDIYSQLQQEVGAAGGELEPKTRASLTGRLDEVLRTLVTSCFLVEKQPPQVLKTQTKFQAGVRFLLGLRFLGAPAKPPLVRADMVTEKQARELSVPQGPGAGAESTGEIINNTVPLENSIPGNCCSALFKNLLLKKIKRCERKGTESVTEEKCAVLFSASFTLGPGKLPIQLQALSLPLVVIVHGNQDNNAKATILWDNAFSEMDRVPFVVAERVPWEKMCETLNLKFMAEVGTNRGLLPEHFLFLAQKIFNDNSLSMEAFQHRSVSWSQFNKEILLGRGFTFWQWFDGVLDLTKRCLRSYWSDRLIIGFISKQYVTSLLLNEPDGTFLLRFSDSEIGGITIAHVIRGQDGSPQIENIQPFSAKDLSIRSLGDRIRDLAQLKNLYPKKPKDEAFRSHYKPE
In words: STAT6 HTRF binding assay. The note with it: 0.15 nM biotinylated truncated STAT6 (123-632)-avi, 20 nM fluorescein-labeled probe. The protocol: HTRF binding assays were performed using 0.15 nM biotinylated truncated STAT6 (123-632)-avi purified from E. coli, 1× Streptavidin-terbium (CisBio) prepared by mixing SA-Tb in PPI detection buffer (CisBio), 20 nM proprietary fluorescein-labeled probe, and test compounds in assay buffer consisting of 50 mM HEPES-Na pH 7.5, 100 mM NaCl, 1 mM EDTA, 2 mM DTT, 0.1% Tween-20 with a final volume of 20 uL. Compound stocks were dissolved at 10 mM in 100% DMSO and 11 point titration with 3 fold serial dilution was performed in white, opaque 384 well microplates. Reaction plates were incubated at room temperature for 30 minutes. Plates were centrifuged at low rpm for 5 mins, and the ratio of fluorescence intensities were measured at emission wavelengths for fluorescein acceptor (520 nm) and terbium donor (495 nm) on Envision Plate reader. % Inhibition was calculated from the 520/495 ratio generated by using proprietary positive control compound for 100% inhibition and DMSO only reactions for 0% inhibition. Data was processed and dose response curves were generated using GraphPad Prism to determine the concentration required for inhibiting 50% of the HTRF signal (IC50).
The letter codes for IC50 (μM) include: A (<0.1 μM); B (0.1-1 μM); C (>1-10 μM); D (>10-100 μM); E (>100 μM); and F (not tested).
For orientation: In TR-FRET formats the signal depends on donor and acceptor labels being close together.

For the next test, the target named is T2, STAT6 (Homo sapiens, UniProt P42226).
T2 construct: endogenous in cells; host or cells: A549
T2 sequence (P42226 1-847): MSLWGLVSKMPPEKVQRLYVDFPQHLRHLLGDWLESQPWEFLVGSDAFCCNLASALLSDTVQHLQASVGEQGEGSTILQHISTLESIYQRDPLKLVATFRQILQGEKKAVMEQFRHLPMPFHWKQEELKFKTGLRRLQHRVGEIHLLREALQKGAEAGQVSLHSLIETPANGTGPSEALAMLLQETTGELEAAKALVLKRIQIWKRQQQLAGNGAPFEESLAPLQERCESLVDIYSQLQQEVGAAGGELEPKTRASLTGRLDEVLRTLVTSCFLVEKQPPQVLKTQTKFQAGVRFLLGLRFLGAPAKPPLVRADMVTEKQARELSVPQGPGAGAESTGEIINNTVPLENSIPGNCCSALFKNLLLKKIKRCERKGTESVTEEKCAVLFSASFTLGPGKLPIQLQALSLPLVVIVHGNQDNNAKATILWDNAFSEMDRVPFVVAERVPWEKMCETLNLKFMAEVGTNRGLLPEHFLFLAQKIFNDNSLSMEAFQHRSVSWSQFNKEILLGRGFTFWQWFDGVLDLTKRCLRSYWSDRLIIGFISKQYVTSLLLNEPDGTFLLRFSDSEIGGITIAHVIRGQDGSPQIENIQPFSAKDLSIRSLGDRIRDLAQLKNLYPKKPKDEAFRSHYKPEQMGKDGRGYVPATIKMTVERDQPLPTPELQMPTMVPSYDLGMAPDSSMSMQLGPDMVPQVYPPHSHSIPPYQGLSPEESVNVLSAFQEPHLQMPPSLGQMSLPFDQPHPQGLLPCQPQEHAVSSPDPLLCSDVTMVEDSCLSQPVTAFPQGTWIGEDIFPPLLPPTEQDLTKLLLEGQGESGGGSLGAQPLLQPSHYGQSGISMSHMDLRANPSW
In words: STAT6 MSD degradation in A549 cells. The test is classed as cell-based. The note with it: 24 h. The protocol:
Degradation of STAT6 in cells was quantitatively measured using Meso Scale Discovery (MSD) technology. A549 cells were seeded in 96-well plates with a density of 1.5×10e4 to 5×10e5 cells per well in 100 μl fresh media. Compounds were then added to the assay plates with a final top concentration of up to 10 uM in a 1:3 dilution series with total of 9 doses. The assay plates were then incubated for 4 to 24 hours at 37° C. under 5% CO2. The assay plates were then centrifuged for 5 minutes and the cell pellets were treated with 100 μl/well RIPA lysis buffer (Boston Bioproducts, BP-115D) with protease and phosphatase inhibitors (Roche, 05892791001 and 04906837001). To prepare the MSD assay plates (MSD, L15XA), the plates were coated with the capture antibody (Abnova, H00006778) in PBS, at 40 μl/well. The plates were then incubated overnight at 4° C., washed 1 time with 150 μl/well TBST buffer (Cell Signaling Technology, #9997S) and blocked with 150 μl/well blocking buffer (MSD, R93BA-4). Cell lysates were then added to MSD assay plates and the plates were incubated at room temperature for 1 hour. The plates were then washed 3 times with 150 μl/well TBST buffer and 25 μl/well primary detection antibody (Cell Signaling Technology, #5397S). The assay plates were then incubated at room temperature for 1 hour, washed 3 times with 150 μl/well TBST buffer, and 25 μl/well secondary detection antibody, SULFO-TAG anti-rabbit antibody (MSD, R32AB-1) were added. The assay plates were then incubated at room temperature for 1 hour, washed 3 times with 150 μl/well TBST buffer, and 150 μl/well MSD reading buffer (MSD, R92TC-2) were added. The plates were then analyzed by an MSD reader. The data was analyzed by GraphPad Prism and the dose dependent STAT6 degradation was fit using the four-parameter inhibitor vs. response nonlinear regression.
The letter codes for DC50 (nM) include: A (<1 nM); B (1-10 nM); C (>10-100 nM); D (>100-1000 nM); E (>1000 nM); and F (not tested). The letter codes for Dmax (oo) include: A (>90%); B (>70-90%); C (>50-70%); D ([…]); and F (not tested).

In another test the target is T3, STAT6-HiBiT (Homo sapiens, UniProt P42226).
T3 construct: Degradation of STAT6 in endogenously tagged STAT6-HiBiT A549 cells; endogenous in cells; host or cells: A549 (STAT6-HiBiT) knock-in cells
T3 sequence (P42226 1-847): T2 sequence (P42226 1-847)
Nature of the test: STAT6 HiBiT degradation in A549 (STAT6-HiBiT) cells. The test is classed as cell-based. The note with it: 24 h. How it is done: Degradation of STAT6 in endogenously tagged STAT6-HiBiT A549 cells was quantitatively measured using the Nano-Glo HiBiT Lytic Detection System (Promega, 3040). A549 (STAT6-HiBiT) cells were seeded in 384-well plates with a density of 1.25k cells per well in 20 μl fresh media. Compounds were then added to the assay plates using the Apricot S3 with a final top concentration of up to 10 uM in a 4-fold dilution series with total of 10 doses. The assay plates were then incubated for 24 hours at 37° C. under 5% CO2. At the assay endpoint, 20 μL of Nano-Glo HiBiT Lytic Reagent was added to each well and agitated on a plate shaker at 300 rpm for 10 minutes at room temperature. Luminescence was read on PHERAStar FSX Instrument (Is integration time). The data was analyzed by GraphPad Prism and the dose dependent STAT6 degradation was fit using the four-parameter inhibitor vs. response nonlinear regression.
The letter codes for DC50 (nM) include: A (<1 nM): B (1-10 nM); C (>10-100 nM); D (>100-1000 nM); E (>1000 nM); and F (not tested). The letter codes for Dmax (%) include: A (>90%); B (>70-90%); C (>50-70%); D (<50%); and E (not tested).
Background: With HiBiT, luminescence reflects the tagged protein that the partner subunit can reach.

For orientation: pIC50 means −log10 of the IC50, conventionally taken in molar units. By DC50 is commonly meant the concentration at which degradation of the target reaches its halfway point. A low value points to degradation at low concentration. A word on the Dmax: it is the largest share of the target that was removed. A high value points to a fuller loss of target. In the case of `COc1cc(N2CCN(c3ccc(-c4cc(C5=CCCN(C(=O)CCn6cccn6)C5)c(F)c5[nH]c(C(=O)N(C)C)cc45)c(F)c3F)CC2)c(F)cc1NC1CCC(=O)NC1=O` (centres unmarked) [Example I-677, 6-(1-(3-(1H-pyrazol-1-yl)propanoyl)-1,2,5,6-tetrahydropyridin-3-yl)-4-(4-(4-(4-((2,6-dioxopiperidin-3-yl)amino)-2-fluoro-5-methoxyphenyl)piperazin-1-yl)-2,3-difluorophenyl)-7-fluoro-N,N-dimethyl-1H-indole-2-carboxamide], the pIC50 in test [1] (HTRF binding) is more than 7.00. On STAT6, this compound displayed a DC50 of less than 1 nM and a Dmax of more than 90%. For the same compound, at STAT6-HiBiT, the DC50 was less than 1 nM and the Dmax is more than 90%.

In the case of `CN(C)C(=O)c1cc2c(-c3ccc(C4CCN(c5ccc(C6CCC(=O)NC6=O)cc5F)CC4)cc3)cc(C3=CCCN(C(=O)CCn4ccnn4)C3)c(F)c2[nH]1` (single isomer, unassigned) [Example I-1439], the pIC50 in test [1] (HTRF binding) is more than 7.00. On STAT6-HiBiT, this compound registered a DC50 of less than 1 nM and a Dmax of more than 90%.

As for `Cc1nn([C@H]2CCC(=O)NC2=O)c2cccc(CCN3CCN(c4cc(Cl)c(-c5cc(C6=CCCN(C(=O)CCn7cccn7)C6)c(F)c6[nH]c(C(=O)N(C)C)cc56)cc4F)CC3)c12` (single isomer, unassigned) [Example I-1078], in test [1] (HTRF binding), the pIC50 is more than 7.00. At STAT6-HiBiT, this compound had a DC50 of less than 1 nM and a Dmax of more than 90%.

`Cc1cc(C2CCN(c3cccc4c3n(C)c(=O)n4[C@@H]3CCC(=O)NC3=O)CC2)ccc1-c1cc(C2=CCCN(C(=O)C(C)C)C2)c(F)c2[nH]c(C(=O)N(C)C)cc12` (single isomer, unassigned) [Example I-790] had a pIC50 in test [1] (HTRF binding) of 5.00 to 6.00. For the same compound, on STAT6, the DC50 was 1 to 10 nM and the Dmax is more than 90%.

Consider `CN(C)C(=O)c1cc2c(F)c(C3CCCN(C(=O)CCn4cccn4)C3)cc(-c3ccc(N4CCN(CCc5ccc(C6CCC(=O)NC6=O)c(Cl)c5)CC4)cc3)c2o1` (single isomer, unassigned) [Example I-281], for which, in test [1] (30 minutes at room temperature), the pIC50 is 6.00 to 7.00. In addition, at STAT6, the DC50 fell in the range of 10 to 100 nM and the maximal degradation (Dmax) was 70 to 90%.

`CN(C)C(=O)c1cc2c(-c3ccc(C4CCN(c5ccc(N[C@H]6CCC(=O)NC6=O)cc5F)CC4)cc3)cc(C3=CCCN(C(=O)CCn4cccn4)C3)c(F)c2[nH]1` (single isomer, unassigned) [Example I-796]: the pIC50 in test [1] (HTRF binding) is more than 7.00. For the same compound, at STAT6, the DC50 was less than 1 nM and the Dmax is 70 to 90%.

In the case of `CN(C)C(=O)c1cc2c(-c3ccc(C4CCN(c5ccc([C@@H]6CCC(=O)NC6=O)cc5F)CC4)cc3)cc(C3=CCCN(C(=O)CCn4ccnn4)C3)c(F)c2[nH]1` (single isomer, unassigned) [Example I-1438], the pIC50 in test [1] (HTRF binding) is more than 7.00. In addition, at STAT6-HiBiT, the half-maximal degradation concentration (DC50) was less than 1 nM and the Dmax is more than 90%.

In test [1] (HTRF binding), `COc1cc(N2CCN(CCCCCCCCN(C(=O)[C@H]3CCCN(c4cncc5ccccc45)C3)c3ccc(=O)n(CC(=O)O)c3)CC2)ccc1-c1cc(C2=CCCN(C(=O)CCn3ccnn3)C2)c(F)c2[nH]c(C(=O)N(C)C)cc12` [Example I-1076, (S)-2-(5-(N-(8-(4-(4-(6-(l-(3-(1H-1,2,3-triazol-1-yl)propanoyl)-1,2,5,6-tetrahydropyridin-3-yl)-2-(dimethylcarbamoyl)-7-fluoro-LH-indol-4-yl)-3-methoxyphenyl)piperazin-1-yl)octyl)-1-(isoquinolin-4-yl)piperidine-3-carboxamido)-2-oxopyridin-1 (2H)-yl)acetic acid] gave a negative logarithm of the IC50 (pIC50) of more than 7.00. Further, on STAT6, the DC50 is 10 to 100 nM and the Dmax was in the range of 50 to 70%.

Turning to `Cc1nn(C2CCC(=O)NC2=O)c2cccc(CCN3CCN(c4cc(Cl)c(-c5cc(C6=CCCN(C(=O)CCn7cccn7)C6)c(F)c6[nH]c(C(=O)N(C)C)cc56)cc4F)CC3)c12` (single isomer, unassigned) [Example I-1079], the pIC50 in test [1] (HTRF binding) is more than 7.00. Besides, on STAT6-HiBiT, the DC50 is less than 1 nM and the Dmax was more than 90%.

In test [1] (HTRF binding), `CN(C)C(=O)c1cc2c(-c3ccc(C4CCN(c5ccc(N[C@@H]6CCC(=O)NC6=O)cc5F)CC4)cc3)cc(C3=CCCN(C(=O)CCn4cccn4)C3)c(F)c2[nH]1` (single isomer, unassigned) [Example I-797] had a pIC50 of more than 7.00. Also, on STAT6, the DC50 lay in the range of 1 to 10 nM and the Dmax lay within 70 to 90%.
